Results as given in US7053215B2, “Substituted Quinazolin-4(3H)-one compounds, compositions, and methods for their use” (Amgen SF, LLC, priority 2000, dated 2006).

In the case of `CC(c1nc2ccccc2c(=O)n1-c1ccc(F)cc1)N(Cc1ccccn1)C(=O)Cc1ccc(C(F)(F)F)cc1.Cl` (stereo not shown), the melting point is reported as 159.2 °C.
